Measurements taken from ChEMBL document CHEMBL1133944, “Identification of a series of oxadiazole-substituted alpha-isopropoxy phenylpropanoic acids with activity on PPARalpha, PPARgamma, and PPARdelta” (Bioorg Med Chem Lett, 2001).

How the values were obtained:
[1] = molecular target: T1, Peroxisome proliferator-activated receptor alpha (Homo sapiens, UniProt Q07869); test: Agonist activity against human Peroxisome proliferator activated receptor alpha receptor in CV-1 cell was determined; format: functional, cell-based
T1 sequence (Q07869 whole entry): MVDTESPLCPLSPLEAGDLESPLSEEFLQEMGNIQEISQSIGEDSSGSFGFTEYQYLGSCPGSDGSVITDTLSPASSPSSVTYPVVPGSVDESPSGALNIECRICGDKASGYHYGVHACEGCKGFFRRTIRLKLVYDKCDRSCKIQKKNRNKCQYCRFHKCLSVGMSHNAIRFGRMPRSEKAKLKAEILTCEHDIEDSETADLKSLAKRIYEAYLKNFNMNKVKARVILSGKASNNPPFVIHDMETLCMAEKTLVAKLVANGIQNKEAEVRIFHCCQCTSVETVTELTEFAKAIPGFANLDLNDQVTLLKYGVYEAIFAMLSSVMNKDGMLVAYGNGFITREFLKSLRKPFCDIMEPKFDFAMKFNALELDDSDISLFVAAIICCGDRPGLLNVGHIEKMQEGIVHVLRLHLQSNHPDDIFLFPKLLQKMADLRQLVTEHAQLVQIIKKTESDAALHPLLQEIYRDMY

[2] = molecular target: T2, Peroxisome proliferator-activated receptor gamma (Homo sapiens, UniProt P37231); test: Agonist activity against human Peroxisome proliferator activated receptor gamma receptor in CV-1 cell was determined; format: functional, cell-based
T2 sequence (P37231 whole entry): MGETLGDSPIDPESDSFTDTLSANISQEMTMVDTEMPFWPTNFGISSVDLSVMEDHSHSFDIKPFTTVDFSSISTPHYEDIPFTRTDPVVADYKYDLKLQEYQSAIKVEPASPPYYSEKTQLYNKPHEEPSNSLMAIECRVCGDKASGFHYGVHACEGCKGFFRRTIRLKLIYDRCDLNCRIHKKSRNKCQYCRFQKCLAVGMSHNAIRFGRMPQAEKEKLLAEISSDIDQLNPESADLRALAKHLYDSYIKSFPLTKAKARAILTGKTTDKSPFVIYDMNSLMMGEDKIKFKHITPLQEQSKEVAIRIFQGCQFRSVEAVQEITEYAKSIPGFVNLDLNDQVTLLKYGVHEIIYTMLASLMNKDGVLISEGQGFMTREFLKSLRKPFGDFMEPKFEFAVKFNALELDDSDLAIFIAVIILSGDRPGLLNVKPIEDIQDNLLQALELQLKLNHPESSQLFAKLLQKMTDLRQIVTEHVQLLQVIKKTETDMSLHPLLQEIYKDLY

[3] = molecular target: T3, Peroxisome proliferator-activated receptor delta (Homo sapiens, UniProt Q03181); test: Agonist activity against human PPAR delta receptor in CV-1 cell was determined; format: functional, cell-based
T3 sequence (Q03181 whole entry): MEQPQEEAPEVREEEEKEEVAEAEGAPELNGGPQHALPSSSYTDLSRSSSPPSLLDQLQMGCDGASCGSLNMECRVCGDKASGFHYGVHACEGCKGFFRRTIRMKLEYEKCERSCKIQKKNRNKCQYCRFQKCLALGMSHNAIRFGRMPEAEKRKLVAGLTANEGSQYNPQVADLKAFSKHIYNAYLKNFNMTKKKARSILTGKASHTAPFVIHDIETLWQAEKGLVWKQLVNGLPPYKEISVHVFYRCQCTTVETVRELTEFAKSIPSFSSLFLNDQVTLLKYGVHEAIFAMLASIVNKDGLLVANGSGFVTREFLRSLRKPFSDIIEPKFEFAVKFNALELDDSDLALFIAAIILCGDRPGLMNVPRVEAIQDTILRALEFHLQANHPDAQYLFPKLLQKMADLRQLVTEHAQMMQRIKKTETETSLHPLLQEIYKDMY

[4] = molecular target: T4, Peroxisome proliferator-activated receptor delta (Homo sapiens) (UniProt Q03181); test: Percent activation for human Peroxisome proliferator activated receptor delta; format: functional
T4 sequence (whole entry): T3 sequence (Q03181 whole entry)

[5] = molecular target: T3, Peroxisome proliferator-activated receptor delta; test: Agonist activity against human Peroxisome proliferator activated receptor delta in CV-1 cell was determined; format: functional, cell-based
[6] = molecular target: T2, Peroxisome proliferator-activated receptor gamma; test: Agonist activity against human peroxisome proliferator activated receptor gamma in CV-1 cell was determined; format: functional, cell-based
[7] = molecular target: T1, Peroxisome proliferator-activated receptor alpha; test: Agonist activity against human Peroxisome proliferator activated receptor alpha in CV-1 cell was determined; format: functional, cell-based
[8] = molecular target: T2, Peroxisome proliferator-activated receptor gamma; test: Agonist activity against human peroxisome proliferator activated receptor gamma was determined; format: functional
[9] = molecular target: T1, Peroxisome proliferator-activated receptor alpha; test: Agonist activity against human Peroxisome proliferator activated receptor alpha was determined; format: functional

| EC50 [1] [nM] | EC50 [2] [nM] | EC50 [3] [nM] | SMILES | also measured |
| --- | --- | --- | --- | --- |
| 790 | 40 | – | CC(C)OC(Cc1ccc(OCCc2noc(-c3ccc(F)cc3)n2)cc1)C(=O)O (stereo not drawn) | – |
| 200 | 6 | 500 | CC(C)OC(Cc1ccc(OCCc2noc(-c3cccc(C(F)(F)F)c3)n2)cc1)C(=O)O (stereo not drawn) | – |
| – | – | – | CC(C)OC(Cc1ccc(OCc2noc(-c3cc(C(F)(F)F)cc(C(F)(F)F)c3)n2)cc1)C(=O)O (stereo in doubt; -1n) [listing 1 of 2 here] | Activation [4]: 40% |
| 79 | 100 | 7900 | CC(C)OC(Cc1ccc(OCc2noc(-c3cccc(F)c3)n2)cc1)C(=O)O (stereo not drawn) | – |
| 13 | 20 | 500 | CC(C)OC(Cc1ccc(OCc2noc(-c3ccc(Cl)cc3)n2)cc1)C(=O)O (stereo not drawn) | – |
| 79 | 50 | 1600 | Cc1cccc(-c2nc(COc3ccc(CC(OC(C)C)C(=O)O)cc3)no2)c1 (stereo not drawn) | – |
| 25 | 16 | 2500 | Cc1ccc(-c2nc(COc3ccc(CC(OC(C)C)C(=O)O)cc3)no2)cc1 (stereo not drawn) | – |
| – | – | – | CC(C)OC(Cc1ccc(OCc2noc(-c3cc(C(F)(F)F)cc(C(F)(F)F)c3)n2)cc1)C(=O)O (stereo in doubt; (+)1n) [listing 1 of 2 here] | EC50 [5]: 790 nM; EC50 [6]: 630 nM; EC50 [7]: 2500 nM |
| 13 | 4 | 7900 | CC(C)OC(Cc1ccc(OCc2noc(-c3ccc(C(C)C)cc3)n2)cc1)C(=O)O (stereo not drawn) | – |
| 6 | 32 | 320 | CC(C)OC(Cc1ccc(OCc2noc(-c3cc(C(F)(F)F)cc(C(F)(F)F)c3)n2)cc1)C(=O)O (stereo not drawn) | – |
| 20 | 63 | 7900 | CC(C)OC(Cc1ccc(OCc2noc(-c3ccc(OC(F)(F)F)cc3)n2)cc1)C(=O)O (stereo not drawn) | – |
| – | – | – | CC(C)OC(Cc1ccc(OCc2noc(-c3cc(C(F)(F)F)cc(C(F)(F)F)c3)n2)cc1)C(=O)O (stereo in doubt; -1n) [listing 2 of 2 here] | EC50 [5]: 630 nM; EC50 [6]: 32 nM; EC50 [7]: 4 nM |
| 40 | 32 | 790 | CC(C)OC(Cc1ccc(OCc2noc(-c3ccc(Br)cc3)n2)cc1)C(=O)O (stereo not drawn) | – |
| – | – | – | CC(C)OC(Cc1ccc(OCCc2noc(-c3cc(C(F)(F)F)cc(C(F)(F)F)c3)n2)cc1)C(=O)O (stereo not drawn) | EC50 [8]: 4 nM; Activation [4]: < 40%; EC50 [9]: 50 nM |
| 32 | 25 | 500 | CC(C)OC(Cc1ccc(OCc2noc(-c3ccc(C(F)(F)F)cc3)n2)cc1)C(=O)O (stereo not drawn) | – |
| – | – | – | CC(C)OC(Cc1ccc(OCc2noc(-c3cc(C(F)(F)F)cc(C(F)(F)F)c3)n2)cc1)C(=O)O (stereo in doubt; (+)1n) [listing 2 of 2 here] | Activation [4]: 40% |
| 160 | 200 | 7900 | CC(C)OC(Cc1ccc(OCc2noc(-c3ccc(F)cc3)n2)cc1)C(=O)O (stereo not drawn) | – |
| – | – | – | CC(C)OC(Cc1ccc(OCCc2noc(-c3ccccc3C(F)(F)F)n2)cc1)C(=O)O (stereo not drawn) | EC50 [5]: 2500 nM; EC50 [6]: 160 nM; EC50 [7]: 400 nM |
| 2000 | 13 | – | CC(C)OC(Cc1ccc(OCCc2noc(-c3ccccc3)n2)cc1)C(=O)O (stereo not drawn) | – |
| 40 | 100 | 1600 | Cc1ccccc1-c1nc(COc2ccc(CC(OC(C)C)C(=O)O)cc2)no1 (stereo not drawn) | – |
| 400 | 25 | – | CC(C)OC(Cc1ccc(OCCc2noc(-c3ccc(Cl)cc3)n2)cc1)C(=O)O (stereo not drawn) | – |
| 160 | 79 | 10000 | CC(C)OC(Cc1ccc(OCc2noc(-c3ccccc3)n2)cc1)C(=O)O (stereo not drawn) | – |

| SMILES | EC50 [1] [nM] | EC50 [2] [nM] | EC50 [3] [nM] | also measured |
| --- | --- | --- | --- | --- |
| CC(C)OC(Cc1ccc(OCCc2noc(-c3cccc(Cl)c3)n2)cc1)C(=O)O (stereo not drawn) | 320 | 4 | 100 | – |
| CC(C)OC(Cc1ccc(OCc2noc(-c3ccc(C(C)(C)C)cc3)n2)cc1)C(=O)O (stereo not drawn) | 40 | 3 | 5000 | – |
| CC(C)OC(Cc1ccc(OCc2noc(C3CCCCC3)n2)cc1)C(=O)O (stereo not drawn) | 240 | 230 | – | – |
| CC(C)OC(Cc1ccc(OCc2noc(-c3cc(F)cc(F)c3)n2)cc1)C(=O)O (stereo not drawn) | 40 | 100 | 160 | – |
| CC(C)OC(Cc1ccc(OCCc2noc(-c3cccc(F)c3)n2)cc1)C(=O)O (stereo not drawn) | 500 | 2 | 4000 | – |
